Test results published in article PMC8854719, “Phase 1A/1B dose-escalation and -expansion study to evaluate the safety, pharmacokinetics, food effects and antitumor activity of pamiparib in advanced solid tumours” (British Journal of Cancer, 2021).

What was measured:
[1] = test system: metastatic castration-resistant prostate cancer (mCRPC); test: PCWG2 response and PSA progression; assay type: in vivo, human
Experimental: Tumour response was evaluated by RECIST v1.1. For patients with ovarian cancer, tumour response was assessed per RECIST v1.1 and by Gynecologic Cancer Intergroup (GCIG) CA-125 criteria. Tumour response for patients with prostate cancer was assessed by Prostate Cancer Clinical Trials Working Group 2 (PCWG2) criteria. Objective response rate (ORR) was defined as the proportion of patients achieving a confirmed complete response (CR) or partial response (PR) on study treatment. Blood tumour antigens (e.g., carcinoembryonic antigen for colorectal cancer, CA-125 for ovarian cancer and prostate-specific antigen [PSA] for mCRPC) were assessed during screening, every 6 weeks after the first pamiparib dose in the first 12 months, and every 9 weeks thereafter.
The safety population comprised all patients in the dose-escalation and dose-expansion phases who received at least one dose of pamiparib (Supplementary Table S2). Patients in the safety analysis set for whom valid pamiparib PK parameters were estimated and for whom evaluable PD results were available represented the PK population and the PD population, respectively. The efficacy-evaluable population included patients in the safety analysis set who had at least one evaluable postbaseline tumour assessment or those who discontinued due to clinical disease progression or early death before tumour assessment could be performed. The EOC efficacy-evaluable population was a subset of the overall efficacy-evaluable population that included patients with EOC from both the dose-escalation and dose-expansion phases. Patients in the dose-expansion phase without measurable disease at baseline per RECIST v1.1 were excluded from the efficacy-evaluable population.

[2] = test system: P-glycoprotein; parameters: method as in PMID 32652442; conditions: cited from earlier work
[3] = Phase 1 portion of NCT03333915, patients in China; cited from earlier work

C[C@]12CCCN1CC1=NNC(=O)c3cc(F)cc4[nH]c2c1c34 [pamiparib]
Median time to PSA progression ([1]; PSA-evaluable population (n=6)): 4.2 months | PSA progression rate ([1]; PSA-evaluable population (n=6)): 33.3% | Responders per PCWG2 criteria (in words) ([1]; mCRPC, phase 1B Part A): No patients with mCRPC in phase 1B Part A were considered responders | Substrate of P-glycoprotein [2]: not a substrate | Anaemia, Grade ≥3 [3]: 27%
